The results in this text go back to USRE49735E1 (BRISTOL-MYERS SQUIBB COMPANY, priority 2010, dated 2023).

SMILES strings stand for the structures. Where “and” joins values, the source holds several entries; their conditions need not be identical. Identical values can stand only once.

human mGluR5A, sequence (P41594 21-1180 isoform P41594-2): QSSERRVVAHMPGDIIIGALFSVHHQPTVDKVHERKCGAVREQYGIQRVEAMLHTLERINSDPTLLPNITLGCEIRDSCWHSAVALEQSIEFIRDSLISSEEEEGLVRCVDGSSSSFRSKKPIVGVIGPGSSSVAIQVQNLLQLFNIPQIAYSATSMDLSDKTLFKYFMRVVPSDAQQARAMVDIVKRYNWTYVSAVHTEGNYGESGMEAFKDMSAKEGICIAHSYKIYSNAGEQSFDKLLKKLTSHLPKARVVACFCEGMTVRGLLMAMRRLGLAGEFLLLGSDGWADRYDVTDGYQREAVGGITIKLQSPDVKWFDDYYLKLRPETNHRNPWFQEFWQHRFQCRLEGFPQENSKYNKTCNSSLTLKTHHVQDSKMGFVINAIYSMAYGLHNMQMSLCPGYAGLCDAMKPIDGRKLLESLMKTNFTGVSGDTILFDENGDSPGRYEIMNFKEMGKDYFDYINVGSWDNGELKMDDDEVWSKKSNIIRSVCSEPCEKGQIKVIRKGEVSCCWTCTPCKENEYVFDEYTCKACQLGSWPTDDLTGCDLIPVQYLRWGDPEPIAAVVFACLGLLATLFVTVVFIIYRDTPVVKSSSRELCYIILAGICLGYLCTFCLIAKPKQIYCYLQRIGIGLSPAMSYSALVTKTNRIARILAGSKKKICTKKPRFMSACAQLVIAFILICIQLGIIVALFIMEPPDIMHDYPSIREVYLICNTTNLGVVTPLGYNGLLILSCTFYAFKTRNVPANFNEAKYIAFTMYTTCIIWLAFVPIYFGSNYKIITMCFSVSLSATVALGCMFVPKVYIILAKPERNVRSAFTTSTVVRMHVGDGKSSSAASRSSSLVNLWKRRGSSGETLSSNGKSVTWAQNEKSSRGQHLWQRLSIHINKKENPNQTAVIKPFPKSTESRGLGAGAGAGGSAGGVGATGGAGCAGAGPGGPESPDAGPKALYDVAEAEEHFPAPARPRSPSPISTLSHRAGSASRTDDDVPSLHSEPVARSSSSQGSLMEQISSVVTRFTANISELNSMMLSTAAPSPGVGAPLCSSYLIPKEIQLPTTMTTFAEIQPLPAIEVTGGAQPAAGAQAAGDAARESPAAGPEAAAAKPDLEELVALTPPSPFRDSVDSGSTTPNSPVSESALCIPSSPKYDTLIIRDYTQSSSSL

The experiment has as its target human mGluR5A (Homo sapiens, UniProt P41594). Briefly: mGluR5 FLIPR Assay. In kind it is cell-based. To be noted: positive modulator activity; HEK293 (ZF) cells with human mGluR5A and rat GLAST; Ca++ response to ~EC10 glutamate.
A word on the EC50: it is the concentration at which the effect is half-maximal. Higher therefore signals a need for much substance. As to `O=C1N[C@@H](c2cncc(C#Cc3cncc(F)c3)c2)[C@H](c2cccnc2)O1` [Example 202], the EC50 is > 1000 nM.

`C[C@]1(c2ccc(F)cc2)OC(=O)N[C@@H]1c1cncc(C#Cc2ccccc2)c1` [Example 203]: the EC50 is < 100 nM and 2.5 nM.

For `C[C@@]1(c2ccc(F)cc2)OC(=O)N[C@H]1c1cncc(C#Cc2ccccc2)c1` [Example 204], the EC50 was < 100 nM.

Take `C[C@@]1(c2ccc(F)cc2)OC(=O)N[C@@H]1c1cncc(C#Cc2ccccc2)c1` [Example 205]: the EC50 is < 100 nM and 2.2 nM.

For `C[C@]1(c2ccc(F)cc2)OC(=O)N[C@H]1c1cncc(C#Cc2ccccc2)c1` [Example 206], the EC50 lay within 100 to 1000 nM.

As to `C[C@@]1(c2ccc(F)cc2)OC(=O)N[C@H]1c1cncc(C#Cc2cncc(F)c2)c1` [Example 207], the EC50 was > 1000 nM.

Consider `C[C@]1(c2ccc(F)cc2)OC(=O)N[C@@H]1c1cncc(C#Cc2cncc(F)c2)c1` [Example 208], for which the EC50 is < 100 nM.

As for `O=C1N[C@H](c2cncc(C#Cc3ncccc3F)c2)[C@@H](c2ccc(F)cc2)O1` [Example 209], the EC50 was < 100 nM.

On to `O=C1N[C@H](c2cncc(C#Cc3ccccn3)c2)[C@@H](c2ccc(F)cc2)O1` [Example 210], for which the EC50 is < 100 nM.

Regarding `N#Cc1cncc(C#Cc2cncc([C@H]3NC(=O)O[C@@H]3c3ccc(F)cc3)c2)c1` [Example 211], the EC50 was < 100 nM.

Turning to `O=C1N[C@H](c2cncc(C#Cc3cnccn3)c2)[C@@H](c2ccc(F)cc2)O1` [Example 212], the EC50 was < 100 nM.

Consider `O=C1N[C@H](c2cncc(C#Cc3ccncc3)c2)[C@@H](c2ccc(F)cc2)O1` [Example 213], for which the EC50 is < 100 nM.

`O=C1N[C@H](c2cncc(C#Cc3ccnc(F)c3)c2)[C@@H](c2ccc(F)cc2)O1` [Example 214]: the EC50 is < 100 nM.

In the case of `N#Cc1cccc(C#Cc2cncc([C@H]3NC(=O)O[C@@H]3c3ccc(F)cc3)c2)c1` [Example 215], the EC50 is < 100 nM.

As for `O=C1N[C@H](c2cncc(C#Cc3cccc(F)n3)c2)[C@@H](c2ccc(F)cc2)O1` [Example 216], the EC50 is < 100 nM.

As to `O=C1N[C@H](c2cccc(C#Cc3ccccc3)n2)[C@@H](c2cccc(F)c2)O1` [Example 217], the EC50 was < 100 nM.

With `O=C1N[C@@H](c2cccc(C#Cc3ccccc3)n2)[C@H](c2cccc(F)c2)O1` [Example 218], the EC50 was > 1000 nM.

On to `C[C@]1(c2cncc(C#Cc3ccccc3)c2)NC(=O)O[C@@H]1c1ccc(F)cc1` [Example 219], for which the EC50 is < 100 nM.

As to `C[C@@]1(c2cncc(C#Cc3ccccc3)c2)NC(=O)O[C@H]1c1ccc(F)cc1` [Example 220], the EC50 lay within 100 to 1000 nM.

`C[C@@]1(c2cccc(F)c2)OC(=O)N[C@H]1c1cncc(C#Cc2ccccc2)c1` [Example 221]: the 50% effective concentration (EC50) is > 1000 nM.

On to `C[C@]1(c2cccc(F)c2)OC(=O)N[C@@H]1c1cncc(C#Cc2ccccc2)c1` [Example 222], for which the 50% effective concentration (EC50) is < 100 nM.

`C[C@]1(c2cccc(F)c2)OC(=O)N[C@H]1c1cncc(C#Cc2ccccc2)c1` [Example 223] registered an EC50 of 100 to 1000 nM.

Consider `C[C@@]1(c2cccc(F)c2)OC(=O)N[C@@H]1c1cncc(C#Cc2ccccc2)c1` [Example 224], for which the EC50 was > 1000 nM.

As to `C[C@@]1(c2cncc(C#Cc3ccccc3)c2)NC(=O)O[C@@H]1c1ccccc1` [Example 225], the EC50 is > 1000 nM.

Consider `C[C@]1(c2cncc(C#Cc3ccccc3)c2)NC(=O)O[C@H]1c1ccccc1` [Example 226], for which the EC50 was < 100 nM.

On to `C[C@]1(c2ccccc2)OC(=O)N[C@@H]1c1cncc(C#Cc2ccccc2)c1` [Example 227], for which the EC50 is < 100 nM.

For `C[C@@]1(c2ccccc2)OC(=O)N[C@@H]1c1cncc(C#Cc2ccccc2)c1` [Example 228], the EC50 is > 1000 nM.

For the molecule `C[C@]1(c2cncc(C#Cc3ncccc3F)c2)NC(=O)O[C@@H]1c1ccccc1` [Example 229], the EC50 is < 100 nM.

With `C[C@@]1(c2cncc(C#Cc3ncccc3F)c2)NC(=O)O[C@H]1c1ccccc1` [Example 230], the EC50 was > 1000 nM.
